# Test results as given in US20090105266A1, “Organic compounds” (priority 2007, published 2009).
# Biological target: T1, mGluR5 (Homo sapiens, UniProt P41594)
# T1 construct: expressed in transfected cells
# Assay: inhibition of the glutamate (agonist) induced elevation of the inositol phosphate turnover
# Format: cell-based
# Details: inhibition of glutamate induced elevation of inositol phosphate turnover at 0.1 μM
# Description: This can be determined in vitro for example at recombinant human metabotropic glutamate receptors, especially PLC-coupled subtypes thereof such as mGluR5, using different procedures like, for example, measurement of the inhibition of the agonist induced elevation of intracellular Ca^2+ concentration in accordance with L. P. Daggett et al., Neuropharm. Vol. 34, pages 871-886 (1995), P. J. Flor et al., J. Neurochem. Vol. 67, pages 58-63 (1996) or by determination to what extent the agonist induced elevation of the inositol phosphate turnover is inhibited as described by T. Knoepfel et al., Eur. J. Pharmacol. Vol. 288, pages 389-392 (1994), L. P. Daggett et al., Neuropharm. Vol. 67, pages 58-63 (1996) and references cited therein. Isolation and expression of human mGluR subtypes are described in U.S. Pat. No. 5,521,297. Selected agents of the invention show IC50 values for the inhibition of the agonist (e.g. glutamate or quisqualate) induced elevation of intracellular Ca2+ concentration or the agonist (e.g. glutamate or quisqualate) induced inositol phosphate turnover, measured in recombinant cells expressing hmGluR^5a of about 0.1 nM to about 50 μM.
# Activity of compounds of the present invention was examined by determination to what extent the agonist induced elevation of the inositol phosphate turnover is inhibited as described by T. Knoepfel et al., Eur. J. Pharmacol. Vol. 288, pages 389-392 (1994), L. P. Daggett et al., Neuropharm. Vol. 67, pages 58-63 (1996) and references cited therein.
# The table below represents percentages of inhibition of the glutamate induced elevation of the inositol phosphate turnover at a concentration of 0.1 μM.
# T1 sequence (P41594 21-1180 isoform P41594-2 limits assumed): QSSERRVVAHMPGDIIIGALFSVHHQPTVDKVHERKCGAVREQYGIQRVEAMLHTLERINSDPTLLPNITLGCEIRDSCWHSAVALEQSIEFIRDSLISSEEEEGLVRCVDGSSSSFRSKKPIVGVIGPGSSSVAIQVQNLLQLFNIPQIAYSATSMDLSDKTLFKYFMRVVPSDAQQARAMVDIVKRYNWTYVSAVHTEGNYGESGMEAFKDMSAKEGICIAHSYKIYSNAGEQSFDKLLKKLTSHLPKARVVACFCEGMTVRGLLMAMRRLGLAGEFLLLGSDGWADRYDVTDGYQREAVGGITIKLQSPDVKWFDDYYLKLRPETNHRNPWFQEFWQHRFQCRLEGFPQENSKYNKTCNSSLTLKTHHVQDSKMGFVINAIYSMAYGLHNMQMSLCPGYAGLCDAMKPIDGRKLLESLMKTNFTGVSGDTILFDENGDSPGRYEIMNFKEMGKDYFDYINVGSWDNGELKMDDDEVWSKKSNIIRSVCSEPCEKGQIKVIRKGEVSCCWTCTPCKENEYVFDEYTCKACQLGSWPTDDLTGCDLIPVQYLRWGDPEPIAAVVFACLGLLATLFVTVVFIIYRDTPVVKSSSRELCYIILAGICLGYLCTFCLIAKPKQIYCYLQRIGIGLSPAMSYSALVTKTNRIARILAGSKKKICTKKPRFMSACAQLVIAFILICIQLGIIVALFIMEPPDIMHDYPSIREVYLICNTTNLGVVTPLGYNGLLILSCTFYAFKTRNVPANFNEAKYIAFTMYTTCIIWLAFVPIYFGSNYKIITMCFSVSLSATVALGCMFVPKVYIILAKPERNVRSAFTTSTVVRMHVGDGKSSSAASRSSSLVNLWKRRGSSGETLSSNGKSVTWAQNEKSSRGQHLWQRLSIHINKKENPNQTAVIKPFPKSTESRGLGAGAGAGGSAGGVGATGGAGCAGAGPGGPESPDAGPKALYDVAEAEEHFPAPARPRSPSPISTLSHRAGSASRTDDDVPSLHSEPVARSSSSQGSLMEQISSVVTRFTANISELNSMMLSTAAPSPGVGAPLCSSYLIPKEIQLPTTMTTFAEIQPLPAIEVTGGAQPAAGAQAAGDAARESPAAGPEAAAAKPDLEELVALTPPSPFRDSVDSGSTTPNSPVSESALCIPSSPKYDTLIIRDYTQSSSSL
Structure (SMILES),mGluR5-activity in [%] inhibition at 0.1 μM [%],inhibition at 0.1 µM [%]
"CCCn1c(-c2cnc(Nc3ccc(N(C)C)nc3)c(Cl)c2)nc2cccc(Cl)c21 [Example 70, N-5-[3-Chloro-5-(7-chloro-1-propyl-1H-benzoimidazol-2-yl)-pyridin-2-yl]-N2,N-2-dimethyl-pyridine-2,5-diamine]",90,
"CCCn1c(-c2cnc(Nc3ccc(NC(C)=O)nc3)c(Cl)c2)nc2ccc(F)cc21 [Example 71, N-{5-[3-Chloro-5-(6-fluoro-1-propyl-1H-benzoimidazol-2-yl)-pyridin-2-ylamino]-pyridin-2-yl}-acetamide]",,20
"CCCn1c(-c2cnc(Nc3ccc(N)nc3)c(Cl)c2)nc2ccc(F)cc21 [Example 71b, N-5-[3-Chloro-5-(6-fluoro-1-propyl-1H-benzoimidazol-2-yl)-pyridin-2-yl]-pyridine-2,5-diamine]",100,
"CCCn1c(-c2cnc(Nc3cnccn3)c(Cl)c2)nc2cccc(Cl)c21 [Example 72, [3-Chloro-5-(7-chloro-1-propyl-1H-benzoimidazol-2-yl)-pyridin-2-yl]-pyrazin-2-yl-amine]",,96
"CCCn1c(-c2cnc(Nc3cc(C)no3)c(Cl)c2)nc2cccc(Cl)c21 [Example 73, [3-Chloro-5-(7-chloro-1-propyl-1H-benzoimidazol-2-yl)-pyridin-2-yl]-(3-methyl-isoxazol-5-yl)-amine]",,98
"CCCn1c(-c2cnc(Nc3ccc(OC)nc3)c(Cl)c2)nc2cccc(Cl)c21 [Example 74, [3-Chloro-5-(7-chloro-1-propyl-1H-benzoimidazol-2-yl)-pyridin-2-yl]-(6-methoxy-pyridin-3-yl)-amine]",,99
"CCCn1c(-c2cnc(Nc3ccc(OC)cc3)c(Cl)c2)nc2cccc(Cl)c21 [Example 75, [3-Chloro-5-(7-chloro-1-propyl-1H-benzoimidazol-2-yl)-pyridin-2-yl]-(4-methoxy-phenyl)-amine]",,99
"CCCn1c(-c2cnc(Nc3ccc(C#N)nc3)c(Cl)c2)nc2cccc(Cl)c21 [Example 75b, 5-[3-Chloro-5-(7-chloro-1-propyl-1H-benzoimidazol-2-yl)-pyridin-2-ylamino]-pyridine-2-carbonitrile]",,99
"CCCn1c(-c2cnc(Nc3ccc(NC(C)=O)nc3)c(Cl)c2)nc2cccc(Cl)c21 [Example 75c, N-{5-[3-Chloro-5-(7-chloro-1-propyl-1H-benzoimidazol-2-yl)-pyridin-2-ylamino]-pyridin-2-yl}-acetamide]",,100
"CCCn1c(-c2cnc(Nc3ccc(C(=O)OC)nc3)c(Cl)c2)nc2cccc(Cl)c21 [Example 75d, 5-[3-Chloro-5-(7-chloro-1-propyl-1H-benzoimidazol-2-yl)-pyridin-2-ylamino]-pyridine-2-carboxylic acid methyl ester]",,100
"CCCn1c(-c2cnc(Nc3ccc(N)nc3)c(Cl)c2)nc2cccc(Cl)c21 [Example 75e, N-5-[3-Chloro-5-(7-chloro-1-propyl-1H-benzoimidazol-2-yl)-pyridin-2-yl]-pyridine-2,5-diamine]",100,
"CCCn1c(-c2cnc(Nc3ccc(CO)nc3)c(Cl)c2)nc2cccc(Cl)c21 [Example 75f, {5-[3-Chloro-5-(7-chloro-1-propyl-1H-benzoimidazol-2-yl)-pyridin-2-ylamino]-pyridin-2-yl}-methanol]",,92
"CCCn1c(-c2ccc(Nc3ccc(C)nc3)cc2)nc2cccc(Cl)c21 [Example 78, [4-(7-Chloro-1-propyl-1H-benzoimidazol-2-yl)-phenyl]-(6-methyl-pyridin-3-yl)-amine]",,99
"CCCn1c(-c2ccc(Nc3ccc(C)nc3)cc2)nc2ccc(F)cc21 [Example 79, [4-(6-Fluoro-1-propyl-1H-benzoimidazol-2-yl)-phenyl]-(6-methyl-pyridin-3-yl)-amine]",,65
"CCCn1c(-c2ccc(Nc3ccc(C)cc3)cc2)nc2cccc(Cl)c21 [Example 80, [4-(7-Chloro-1-propyl-1H-benzoimidazol-2-yl)-phenyl]-p-tolyl-amine]",,90
"CCCn1c(-c2ccc(Nc3ccc(Cl)cc3)cc2)nc2cccc(Cl)c21 [Example 81, (4-Chloro-phenyl)-[4-(7-chloro-1-propyl-1H-benzoimidazol-2-yl)-phenyl]-amine]",,96
"CCCn1c(-c2ccc(Nc3ccc(OC)cc3)cc2)nc2cccc(Cl)c21 [Example 82, [4-(7-Chloro-1-propyl-1H-benzoimidazol-2-yl)-phenyl]-(4-methoxy-phenyl)-amine]",,88
"CCCn1c(-c2ccc(Nc3ccc(C)cc3)cc2)nc2ccc(F)cc21 [Example 83, [4-(6-Fluoro-1-propyl-1H-benzoimidazol-2-yl)-phenyl]-p-tolyl-amine]",,52

Structure (SMILES),mGluR5-activity in [%] inhibition at 0.1 μM [%],inhibition at 0.1 µM [%]
"CCCn1c(-c2ccc(Nc3ccc(OC)cc3)nn2)nc2cccc(Cl)c21 [Example 86, [6-(7-Chloro-1-propyl-1H-benzoimidazol-2-yl)-pyridazin-3-yl]-(4-methoxy-phenyl)-amine]",,60
"CCCn1c(-c2ccc(Nc3ccc(Cl)cc3)nn2)nc2cccc(Cl)c21 [Example 87, (4-Chloro-phenyl)-[6-(7-chloro-1-propyl-1H-benzoimidazol-2-yl)-pyridazin-3-yl]-amine]",,47
"CCCn1c(-c2ccc(Nc3ccc(C)nc3)nn2)nc2cccc(Cl)c21 [Example 88, [6-(7-Chloro-1-propyl-1H-benzoimidazol-2-yl)-pyridazin-3-yl]-(6-methyl-pyridin-3-yl)-amine]",,97
"CCCn1c(-c2cnc(Nc3ccc(OC)cc3)nc2)nc2cccc(Cl)c21 [Example 90, [5-(7-Chloro-1-propyl-1H-benzoimidazol-2-yl)-pyrimidin-2-yl]-(4-methoxy-phenyl)-amine]",,102
"CCCn1c(-c2cnc(Nc3ccc(Cl)cc3)nc2)nc2cccc(Cl)c21 [Example 91, (4-Chloro-phenyl)-[5-(7-chloro-1-propyl-1H-benzoimidazol-2-yl)-pyrimidin-2-yl]-amine]",,100
"CCCn1c(-c2cnc(Nc3ccc(C)nc3)nc2)nc2cccc(Cl)c21 [Example 92, [5-(7-Chloro-1-propyl-1H-benzoimidazol-2-yl)-pyrimidin-2-yl]-(6-methyl-pyridin-3-yl)-amine]",,99
"CCCn1c(-c2cnc(Nc3ccc(OC)cc3)nc2)nc2ccc(F)cc21 [Example 93, [5-(6-Fluoro-1-propyl-1H-benzoimidazol-2-yl)-pyrimidin-2-yl]-(4-methoxy-phenyl)-amine]",,34
"CCCn1c(-c2ccc(Nc3ccc(C)nc3)c(Cl)c2)nc2ccccc21 [Example 94, [2-Chloro-4-(1-propyl-1H-benzoimidazol-2-yl)-phenyl]-(6-methyl-pyridin-3-yl)-amine]",,97
"CCCn1c(-c2ccc(Nc3ccc(C)cc3)c(Cl)c2)nc2cccc(Cl)c21 [Example 95, [2-Chloro-4-(7-chloro-1-propyl-1H-benzoimidazol-2-yl)-phenyl]-p-tolyl-amine]",,63
"CCCn1c(-c2ccc(Nc3ccc(Cl)cc3)c(Cl)c2)nc2cccc(Cl)c21 [Example 96, [2-Chloro-4-(7-chloro-1-propyl-1H-benzoimidazol-2-yl)-phenyl]-(4-chloro-phenyl)-amine]",,85
"CCCn1c(-c2ccc(Nc3ccc(OC)cc3)c(Cl)c2)nc2cccc(Cl)c21 [Example 97, [2-Chloro-4-(7-chloro-1-propyl-1H-benzoimidazol-2-yl)-phenyl]-(4-methoxy-phenyl)-amine]",,98
"CCCn1c(-c2ccc(Nc3ccc(C)nc3)c(Cl)c2)nc2cccc(Cl)c21 [Example 98, [2-Chloro-4-(7-chloro-1-propyl-1H-benzoimidazol-2-yl)-phenyl]-(6-methyl-pyridin-3-yl)-amine]",,103
"CCCn1c(-c2ccc(Nc3ccc(OC)cc3)nc2)nc2cccc(Cl)c21 [Example 99, [5-(7-Chloro-1-propyl-1H-benzoimidazol-2-yl)-pyridin-2-yl]-(4-methoxy-phenyl)-amine]",,99
"CCCn1c(-c2ccc(Nc3ccc(C)nc3)nc2)nc2cccc(Cl)c21 [Example 100, [5-(7-Chloro-1-propyl-1H-benzoimidazol-2-yl)-pyridin-2-yl]-(6-methyl-pyridin-3-yl)-amine]",,100
"CCCn1c(-c2ccc(Nc3ccc(Cl)cc3)nc2)nc2cccc(Cl)c21 [Example 101, (4-Chloro-phenyl)-[5-(7-chloro-1-propyl-1H-benzoimidazol-2-yl)-pyridin-2-yl]-amine]",,95
"CCCn1c(-c2ccc(Nc3ccc(C)nc3)nc2)nc2ccccc21 [Example 102, (6-Methyl-pyridin-3-yl)-[5-(1-propyl-1H-benzoimidazol-2-yl)-pyridin-2-yl]-amine]",,90
"CCCn1c(-c2ccc(Nc3ccc(C)cc3)nc2)nc2cccc(Cl)c21 [Example 103, [5-(7-Chloro-1-propyl-1H-benzoimidazol-2-yl)-pyridin-2-yl]-p-tolyl-amine]",,97
